Source: patent US12290544B1, “Essential oil of stems and leaves of Chuzhou chrysanthemum and application thereof” (Chuzhou University, priority 2023, dated 2025)
Where a name gives a salt, the structure may show the parent alone.

What was measured:
Escherichia coli = experiment: Bacterial inhibition assay (filter paper, bacteriostatic ring); type: cell-based
Description: (§1) Cultured Escherichia coli and Staphylococcus aureus are diluted into […] colony forming units per milliliter (CFU/mL) bacterial solution respectively, and evenly spread on a potato dextrose agar (PDA) plate. After standing for 10 min, the filter paper with a diameter of 6 mm made by a punch is spread on the PDA plate, and 6 pieces are evenly placed in each plate. 10 μL of essential oil of stems and leaves of Chuzhou chrysanthemum with a concentration of 5 mg/mL is added with a pipette, and the culture dish is placed in a 37° C. incubator for culture. In the same way, the bacterial inhibition assay of the essential oil of the stems and leaves of Chuzhou chrysanthemum is carried out at the concentrations of 10, 20, 50, and 100 mg/mL. After 16 to 18 h of incubation, a diameter of a bacteriostatic ring (including the piece) is measured with a vernier caliper and recorded. When measuring the bacteriostatic ring, the bacteriostatic ring with uniform and completely sterile growth should be selected, and its diameter should be measured with an outer edge of the bacteriostatic ring as the boundary. Six parallel experiments are performed for each concentration, and the mean and standard deviation are calculated. Ethyl acetate is used as blank control, and streptomycin sulfate and ampicillin are used as positive controls.

Staphylococcus aureus = experiment: as above; type: cell-based
Description: as §1

[1] = positive control 50 ppm, read-out: Inhibitory rate
[2] = positive control 500 ppm, read-out: Inhibitory rate

SMILES | Bacteriostatic ring diameter (Escherichia coli; positive control 50 ppm) [B mm] | inhibition at 50 ppm (Escherichia coli; [1]) [%] | Bacteriostatic ring diameter (Staphylococcus aureus; positive control 50 ppm) [C mm] | inhibition at 50 ppm (Staphylococcus aureus; [1]) [%] | Bacteriostatic ring diameter (Escherichia coli; positive control 500 ppm) [C mm] | inhibition at 500 ppm (Escherichia coli; [2]) [%] | Bacteriostatic ring diameter (Staphylococcus aureus; positive control 500 ppm) [B mm] | inhibition at 500 ppm (Staphylococcus aureus; [2]) [%]
CC1(C)S[C@@H]2[C@H](NC(=O)[C@H](N)c3ccccc3)C(=O)N2[C@H]1C(=O)O [Ampicillin] | 17.12 ± 0.63 | 54.8 ± 1.66 | 16.58 ± 1.17 | 53.2 ± 3.03 | – | – | – | –
[H]/N=C(/N)N[C@H]1[C@H](O)[C@@H](O)[C@H](O[C@@H]2O[C@@H](C)[C@](O)(C=O)[C@H]2O[C@@H]2O[C@@H](CO)[C@H](O)[C@@H](O)[C@@H]2NC)[C@@H](N/C(N)=N\[H])[C@@H]1O [Streptomycin sulfate] | – | – | – | – | 15.98 ± 0.43 | 51.6 ± 1.3 | 18.10 ± 0.48 | 57.3 ± 1.13
